Source: patent US20260297105A1, “RAF-MEK PROTEIN COMPLEX MODULATORS AND METHODS OF USE THEREOF” (GANDEEVA THERAPEUTICS, INC., priority 2023, published 2026)
Like-named read-outs stand apart in the source and are kept apart here.

Tests used:
BRAF-MEK1 = assay: BRAF-MEK TR-FRET assay, stabilization of MEK1 and BRAF interaction; type: binding; conditions: 4 nM BRAF, 10 nM MEK, 100 μM ATP, 1 hr at 25° C., read-out: BRAF-MEK TR-FRET Assay (EC50, fold stabilization)
Excerpt: (§1) Protein expression and purification: BRAF (445-723) with N-term His-tag and C-term StrepII tag was expressed using the Expi293 system (ThermoFisher) and purified using Strep-Tactin® XT-Superflow (IBA) chromatography. ERK1 (full-length) with N-term His-tag was expressed in Rosetta DE3 cells (Millipore) and purified using HisTrap HP (Cytiva) and Superdex 200 (Cytiva) column chromatography. Full-length MEK1 for TR-FRET assays with N-term His-tag was expressed in BL21DE3 cells (ThermoFisher) and purified using HisTrap HP (Cytiva) and Superdex 200 (Cytiva) column chromatography.
Efficacy of exemplary compounds in stabilization of MEK1 and BRAF interaction: Compound stabilization of BRAF-MEK interaction was evaluated using TR-FRET (Time Resolved Fluorescence Energy Transfer). The FRET assay consisted of His-tagged MEK1 (produced in-house), GST-tagged BRAF (SignalChem, B08-11G), Anti His-Tb Cryptate donor, and Anti GST-XL665 acceptor fluorophores (PerkinElmer) to generate FRET signal upon BRAF-MEK1 binding. Compounds were prepared from DMSO stocks in assay buffer (50 mM Tris pH 7.5, 150 mM NaCl, 1 mM DTT, 0.05% Tween-20, 5 mM MgCl2, and 100 μM ATP) and incubated with 4 nM BRAF and 10 nM MEK for 1 hr at 25° C. 1 ng Anti His-Tb Cryptate/20 ng Anti GST-XL665 premix was then added and incubated for 1 hr at 25° C. TR-FRET was measured using Cytation5 microplate reader (Agilent) using Ex/Em=340/620 nm and Ex/Em=340/665 nm to determine the FRET ratio. Fold stabilization was calculated as FRET signal of treated well/DMSO control. Fold stabilization as a function of compound concentration from 2 replicate wells was fit with a 4-parameter logistic curve equation using GraphPad Prism or CDD Vault to derive EC50 values.
(§2) In this table, for the BRAF ADP Glo kinase assay, “A” indicates IC50 of less than 5 nM; “B” indicates IC50 of between 5 nM to 50 nM; and “C” indicates IC50 of between 50 nM to 500 nM. “D” indicates IC50 of greater than 500 nM. For the BRAF-MEK TR-FRET assay, “A” indicates EC50 of less than 50 nM; “B” indicates EC50 of between 50 nM to 200 nM; and “C” indicates EC50 of between 200 nM to 1 μM. “D′” indicates EC50 of greater than 1 μM. For the AlphaLisa P-ERK assay, “A” indicates IC50 of less than 1 nM; “B” indicates IC50 of between 1 nM to 10 nM; and “C” indicates IC50 of between 10 nM to 100 nM. “D” indicates IC50 of greater than 100 nM. For the cell viability assay, “A” indicates IC50 of less than 1 nM; “B” indicates IC50 of between 1 nM to 10 nM; and “C” indicates IC50 of between 10 nM to 100 nM. “D” indicates IC50 of greater than 100 nM.

MEK1 = target: T1, MEK1 (Homo sapiens, UniProt Q02750); assay: MEK1 kinase cascade assay (ADP-Glo), inhibition of MEK1 kinase activity; type: biochemical; conditions: 25 nM BRAF, 6.25 nM MEK1, 0.5 μM ERK, 1 mM ATP; 20 min preincubation, 1 hr at 25° C.; read-out: BRAF ADP Glo kinase assay V3 (IC50)
T1 construct: purchased SignalChem M02-14H
Excerpt: as §1
Efficacy of exemplary compounds in inhibition of MEK1 kinase activity: The effect of compound MEK1 inhibition was evaluated using an ADP detection system for kinases, such as the ADP-Glo assay (Promega). The MEK1 kinase cascade assay consisted of 9 μL reaction volumes in 384-well white, opaque Optiplates (PerkinElmer). Compounds were prepared from DMSO stocks in assay buffer (10 mM HEPES pH 7.5, 5 mM MgCl2, 2 mM CHAPS, and 1 mM DTT) and preincubated with 25 nM BRAF for 20 mins at 25° C. prior to addition of 6.25 nM MEK1/0.5 μM ERK/1 mM ATP premix to initiate the kinase reaction. Both BRAF and ERK1 were produced in-house, and MEK1 was purchased from SignalChem (M02-14H). DMSO was kept constant at a final concentration of 1%. After a 1 hr incubation at 25° C., conversion of ATP to ADP was detected using ADP-Glo™ reagents according to the manufacturer's protocol. Luminescence was measured using a CLARIOstar microplate reader (BMG). Percent (%) Inhibition was calculated by normalizing to DMSO control (max) and 1 μM Trametinib (min). % inhibition as a function of compound concentration from 2 replicate wells was fit with a 4-parameter logistic curve equation using GraphPad Prism or CDD Vault to derive IC50 values.
as §2

T1 sequence (Q02750 whole entry): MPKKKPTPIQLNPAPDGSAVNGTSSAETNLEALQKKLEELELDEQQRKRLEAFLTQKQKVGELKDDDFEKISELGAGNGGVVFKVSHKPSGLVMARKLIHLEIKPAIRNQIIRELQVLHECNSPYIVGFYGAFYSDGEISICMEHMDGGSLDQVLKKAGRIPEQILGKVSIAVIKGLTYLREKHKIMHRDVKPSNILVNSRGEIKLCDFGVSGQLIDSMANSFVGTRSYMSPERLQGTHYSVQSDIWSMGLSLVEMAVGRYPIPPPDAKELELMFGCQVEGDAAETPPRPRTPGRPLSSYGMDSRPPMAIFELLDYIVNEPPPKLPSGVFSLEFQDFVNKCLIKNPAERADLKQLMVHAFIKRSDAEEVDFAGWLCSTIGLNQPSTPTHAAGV
T1 sequence (P15056 445-723 partner limits assumed): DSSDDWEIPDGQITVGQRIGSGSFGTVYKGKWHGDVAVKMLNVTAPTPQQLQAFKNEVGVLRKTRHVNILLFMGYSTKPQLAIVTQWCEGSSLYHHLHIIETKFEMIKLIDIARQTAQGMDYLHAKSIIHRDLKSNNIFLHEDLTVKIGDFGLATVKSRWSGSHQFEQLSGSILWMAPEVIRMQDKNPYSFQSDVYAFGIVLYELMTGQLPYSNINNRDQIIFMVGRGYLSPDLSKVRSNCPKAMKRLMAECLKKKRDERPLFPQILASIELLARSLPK

| SMILES | EC50 (BRAF-MEK1) [nM] | IC50 (MEK1) [nM] | EC50 (BRAF-MEK1; 60 min) [nM] |
| --- | --- | --- | --- |
| CNS(=O)(=O)Nc1nccc(CN2C(=O)Oc3cc(Oc4cccnn4)ccc3[C@H]2C)c1F (single isomer, unassigned) [Compound 23] | < 50 | 5 to 50 | – |
| CNS(=O)(=O)Nc1cccc(CN2C(=O)Oc3c(ccc(Oc4cccnn4)c3F)[C@H]2C)c1F (single isomer, unassigned) [Compound 36] | 50 to 200 | 5 to 50 | – |
| C[C@H]1c2ccc(Oc3cccnn3)c(F)c2OC(=O)N1Cc1cccc(NS(=O)(=O)N(C)C)c1F (single isomer, unassigned) [Compound 44] | 200 to 1000 | < 5 | – |
| C[C@H]1c2c(F)cc(Oc3cccnn3)cc2OC(=O)N1Cc1cccc(NS(=O)(=O)C2CC2)c1F (single isomer, unassigned) [Compound 55] | 200 to 1000 | 5 to 50 | – |
| CNS(=O)(=O)Nc1cccc(CN2C(=O)Oc3cc(Oc4ncco4)c(F)cc3C2C)c1F (single isomer, unassigned) [Compound 85, (R)-6-fluoro-3-({2-fluoro-3-(methylsulfamoyl)amino]phenyl}methyl)-4-methyl-7-(1,3-oxazol-2-yloxy)-3,4-dihydro-2H-1,3-benzoxazin-2-one or (S)-6-fluoro-3-({2-fluoro-3-(methylsulfamoyl)amino]phenyl}methyl)-4-methyl-7-(1,3-oxazol-2-yloxy)-3,4-dihydro-2H-1,3-benzoxazin-2-one] | 200 to 1000 | 5 to 50 | – |
| CNS(=O)(=O)Nc1cccc(CN2C(=O)Oc3cc(Oc4ncco4)cc(F)c3[C@@H]2C)c1F (single isomer, unassigned) [Compound 86, (S)-5-fluoro-3-({2-fluoro-3-(methylsulfamoyl)amino]phenyl}methyl)-4-methyl-7-(1,3-oxazol-2-yloxy)-3,4-dihydro-2H-1,3-benzoxazin-2-one or (R)-5-fluoro-3-({2-fluoro-3-(methylsulfamoyl)amino]phenyl}methyl)-4-methyl-7-(1,3-oxazol-2-yloxy)-3,4-dihydro-2H-1,3-benzoxazin-2-one] | 200 to 1000 | 5 to 50 | – |
| CNS(=O)(=O)Nc1cccc(CN2C(=O)Oc3c(ccc(Oc4ncco4)c3F)[C@@H]2C)c1F (single isomer, unassigned) [Compound 89, (S)-8-fluoro-3-({2-fluoro-3-(methylsulfamoyl)amino]phenyl}methyl)-4-methyl-7-(1,3-oxazol-2-yloxy)-3,4-dihydro-2H-1,3-benzoxazin-2-one or (R)-8-fluoro-3-({2-fluoro-3-(methylsulfamoyl)amino]phenyl}methyl)-4-methyl-7-(1,3-oxazol-2-yloxy)-3,4-dihydro-2H-1,3-benzoxazin-2-one] | 200 to 1000 | < 5 | – |
| CNS(=O)(=O)Nc1nccc(CN2C(=O)Oc3cc(Oc4cccnn4)cnc3[C@H]2C)c1F (stereo in doubt) [Compound 193, 3-{[3-fluoro-2-(methylaminosulfonylamino)-4 pyridyl]methyl}-4-methyl-7-(3-pyridazinyloxy)-3,4-dihydro-2H-1-oxa-3,5 diazanaphthalen-2-one] | – | – | < 50 |
| CNS(=O)(=O)Nc1nccc(CN2C(=O)Oc3cc(Oc4nccnn4)cnc3[C@@H]2C)c1F (stereo in doubt) [Compound 199, 3-{[3-fluoro-2-(methylaminosulfonylamino)-4-pyridyl]methyl}-4-methyl-7-(1,2,4-triazin-3-yloxy)-3,4-dihydro-2H-1-oxa-3,5-diazanaphthalen-2-one] | – | – | 50 to 200 |
| CNS(=O)(=O)Nc1cccc(CN2Cc3cc(Cl)c(OC(=O)C(C)C)cc3OC2=O)c1F [Compound 129, 6-chloro-3-(2-fluoro-3-((N-methylsulfamoyl)amino)benzyl)-2-oxo-3,4-dihydro-2H-benzo[e][1,3]oxazin-7-yl isobutyrate] | 200 to 1000 | – | – |
| CNS(=O)(=O)Nc1cccc(CN2Cc3cc(Cl)c(OC(=O)C4CC4)cc3OC2=O)c1F [Compound 130, 6-chloro-3-(2-fluoro-3-((N-methylsulfamoyl)amino)benzyl)-2-oxo-3,4-dihydro-2H-benzo[e][1,3]oxazin-7-yl cyclopropanecarboxylate] | 50 to 200 | – | – |
| CNS(=O)(=O)Nc1cccc(CN2Cc3ccc(OC(=O)C4CC4)cc3OC2=O)c1F [Compound 147, 3-(2-fluoro-3-((N-methylsulfamoyl)amino)benzyl)-2-oxo-3,4-dihydro-2H-benzo[e][1,3]oxazin-7-yl cyclopropanecarboxylate] | 50 to 200 | – | – |
| CNS(=O)(=O)Nc1nccc(CN2C(=O)Oc3cc(Oc4ncccn4)ccc3C23CCC3)c1F [Compound 160, 3-{[3-fluoro-2-(methylaminosulfonylamino)-4-pyridyl]methyl}-7-(2-pyrimidinyloxy)-2H,3H-spiro[1,3-benzoxazine-4,1′-cyclobutan]-2-one] | 200 to 1000 | – | – |
| O=C1Oc2cc(Oc3cccnn3)ccc2C2(CCC2)N1Cc1ccnc(NS(=O)(=O)C2CC2)c1F [Compound 163, (cyclopropylsulfonyl)[3-fluoro-4-({2-oxo-7-(3-pyridazinyloxy)-2H,3H-spiro[1,3-benzoxazine-4,1′-cyclobutan]-3-yl}methyl)-2-pyridyl]amine] | 200 to 1000 | – | – |
| O=C1Oc2cc(Oc3ncco3)c(F)cc2C2(COC2)N1Cc1ccnc(NS(=O)(=O)C2CC2)c1F [Compound 172, N-(3-fluoro-4-((6-fluoro-7-(oxazol-2-yloxy)-2-oxospiro[benzo[e][1,3]oxazine-4,3′-oxetan]-3(2H)-yl)methyl)pyridin-2-yl)cyclopropanesulfonamide] | – | 50 to 500 | – |
| CNS(=O)(=O)Nc1nccc(CN2C(=O)Oc3cc(Oc4ncc(C)o4)ccc3C23CCC3)c1F [Compound 180, 3-{[3-fluoro-2-(methylaminosulfonylamino)-4-pyridyl]methyl}-7-(5-methyl-1,3-oxazol-2-yloxy)-2H,3H-spiro[1,3-benzoxazine-4,1′-cyclobutan]-2-one] | – | 5 to 50 | – |
| CNS(=O)(=O)Nc1nccc(CN2C(=O)Oc3cc(Oc4nc(C)co4)ccc3C23CCC3)c1F [Compound 182, 3-{[3-fluoro-2-(methylaminosulfonylamino)-4-pyridyl]methyl}-7-(4-methyl-1,3-oxazol-2-yloxy)-2H,3H-spiro[1,3-benzoxazine-4,1′-cyclobutan]-2-one] | – | 5 to 50 | – |
| CNS(=O)(=O)Nc1cc(F)cc(CN2C(=O)Oc3cc(Oc4ncco4)ccc3C23CCC3)c1F [Compound 195, 3-{[2,5-difluoro-3-(methylaminosulfonylamino)phenyl]methyl}-7-(1,3-oxazol-2-yloxy)-2H,3H-spiro[1,3-benzoxazine-4,1′-cyclobutan]-2-one] | – | 50 to 500 | – |
| CNS(=O)(=O)Nc1ccc(F)c(CN2C(=O)Oc3cc(Oc4cccnn4)ccc3C23CCC3)c1F [Compound 197, 3-{[2,6-difluoro-3-(methylaminosulfonylamino)phenyl]methyl}-7-(3-pyridazinyloxy)-2H,3H-spiro[1,3-benzoxazine-4,1′-cyclobutan]-2-one] | – | 50 to 500 | – |
